Reference: US10526278B2, “Inhibitors of quorum sensing receptor LasR” (priority 2017, dated 2020)

Assays:
[1] = test system: P. aeruginosa PAO1; test: Elastase B production in P. aeruginosa PAO1 culture supernatants (elastin-Congo red); format: cell-based, Pseudomonas aeruginosa; conditions: compound alone 100 μM; % elastase relative to DMSO; FIG. 12A
Experimental: FIG. 12A is a graph comparing inhibition of elastase (as % relative to DMSO) for certain compounds of the invention. The amount of indicated compound added was 100 μM. M64 alone or in combination was added in the amount of 20 μM. The assay is conducted as described in Welsh et al. (2016) for compounds shown as well as certain compounds in combination with compound M-64 (Starkey, M. et al. (2014)):
The amount of elastase B in P. aeruginosa culture supernatants was measured following a reported protocol (Welsh et al., 2017 and Geske et al., 2007b) with modifications. A 10 mL overnight culture of P. aeruginosa PAO1 was grown for 16 hr. An inoculating culture was prepared by diluting the overnight culture 1:100 into freshly prepared assay medium, and 2 mL aliquots of this subculture were added to each test tube (0.5% DMSO, final). The cultures were grown for 17 hr, and the final cell density measured by reading OD600. […]
To quantify elastase B activity, the undigested elastin was pelleted by centrifugation of the assay plate at […] for 10 min, after which […] of the supernatant was transferred to a new, clear 96-well plate, and the absorbance at 490 nm measured. Media background absorbance (measured from a “no bacteria” control) was subtracted, the resulting values growth normalized by dividing by the final OD600, and the data plotted relative to a DMSO-treated positive control.

[2] = target: T1, LasR (Pseudomonas aeruginosa, UniProt P25084); test: LasR activation (agonism) assay, methods of Moore et al. 2015; format: cell-based; conditions: at high concentrations; FIGS. 8B, 9B, 10B
T1 sequence (P25084 whole entry): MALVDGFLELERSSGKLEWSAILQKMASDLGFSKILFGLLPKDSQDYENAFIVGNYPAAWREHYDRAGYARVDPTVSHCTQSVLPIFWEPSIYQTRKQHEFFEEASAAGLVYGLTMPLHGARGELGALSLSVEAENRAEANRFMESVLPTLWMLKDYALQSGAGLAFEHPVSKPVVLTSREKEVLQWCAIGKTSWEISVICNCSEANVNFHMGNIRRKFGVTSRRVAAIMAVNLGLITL
From the text: (§1) Methods for assessing LasR activation and inhibition are known in the art. More specifically methods as described in Moore et al. 2015 are used herein to assess activation and inhibition.
FIGS. 8A and 8B compare % LasR inhibition (8A) with % LasR activation (8B) for control compound V-06-018.
FIGS. 9A and 9B compare % LasR inhibition (9A) with % LasR activation (9B) for compound 33.
FIGS. 10A and 10B compare % LasR inhibition (10A) with % LasR activation (10B) for compound 32 (thiophene analog of compound 33).

[3] = test system: P. aeruginosa PAO1; conditions: earlier reports; cited from earlier work
[4] = target: T1, LasR; format: cell-based; conditions: measured vs 25 nM OdDHL
From the text: as §1
IC50 is the concentration of an inhibitor where the response or binding is reduced by half (half maximal inhibitory concentration).

## CCCCCCCCCC(=O)CC(=O)Nc1ccccc1 [Compound V-06-018]
[1]
  inhibition of production of virulence factor elastase: little or no inhibition
[2]
  % LasR activation: does not exhibit LasR activation
[3]
  inhibition of elastase production (previously shown): previously been shown to inhibit elastase production
[4]
  Maximum Inhibition (95% CL): 87 (91-85) %
[4]; read-out: IC50 (95% CL)
  IC50: 2 µM
